21 compounds from ChEMBL document CHEMBL5390203, “Identification of Obscurolide-Type Metabolites and Antifungal Metabolites from the Termite-Associated Streptomyces neopeptinius BYF101” (2023) can be followed below.

In one test the test system is Cryptococcus neoformans. Kind of test: Antifungal activity against Cryptococcus neoformans H99 assessed as fungal growth inhibition incubated for 2 days by broth serial dilution method. Format: functional. The note with it: H99, 48 h, time 2 day.
Another test concerns Candida albicans. Kind of test: Antifungal activity against Candida albicans SC5314 assessed as fungal growth inhibition incubated for 2 days by broth serial dilution method. Format: functional. Particulars: for Activity: time 2.0 day.

In brackets after ≈: the same amount, converted by molar mass. Activity calls are given as the source filed them. No cut-off for these calls is given here.

Turning to `Cc1c(C(=O)O)c(O)cc2c1C(=O)c1c(O)cc(O)cc1C2=O`, the MIC (in general, the lowest concentration that inhibits growth of the organism) in the test with Cryptococcus neoformans turned out to be 100 µg/mL (≈ 318 µM). For the same compound, the result with Candida albicans was inactive.
On the same counts, the results for `O=C1CNC(=O)[C@H](Cc2ccccc2)N1` are 50 µg/mL (≈ 245 µM) and “inactive”.
With `C[C@@H]1NC(=O)[C@H](Cc2ccccc2)NC1=O`, the MIC in the test with Cryptococcus neoformans came out at 100 µg/mL (≈ 458 µM). Moreover, in the test on Candida albicans, the result was inactive.
On the same counts, the results for `CC(C)[C@@H]1NC(=O)[C@@H]2CCCN2C1=O` are 100 µg/mL (≈ 510 µM) and “inactive”.
On to `O=c1[nH]c2ccccc2o1` [BENZOXAZOLINONE], for which, in the test with Cryptococcus neoformans, the MIC was 25 µg/mL (≈ 185 µM). Besides, in the test on Candida albicans, the outcome was inactive.
On the same counts, the results for `C/C=C/[C@H](O)[C@@H]1OC(=O)C[C@H]1Nc1ccc(C(=O)O)cc1` are 25 µg/mL (≈ 85.8 µM) and “inactive”.
On the same counts, the results for `O=C1[C@H](Cc2ccccc2)NC(=O)[C@]2(O)CCCN12` are 50 µg/mL (≈ 192 µM) and “inactive”.
Regarding `OC(Cn1cncn1)(Cn1cncn1)c1ccc(F)cc1F` [FLUCONAZOLE], the MIC in the test on Cryptococcus neoformans was 4 µg/mL (≈ 13.1 µM).
With `CC(C)C[C@@H]1NC(=O)[C@@H]2CCCN2C1=O`, in the test with Cryptococcus neoformans, the MIC was found to be 50 µg/mL (≈ 238 µM). Besides, the result with Candida albicans was inactive.
On the same counts, the results for `CC(C)C[C@@H]1NC(=O)[C@H](C(C)C)NC1=O` are 50 µg/mL (≈ 236 µM) and “inactive”.
`CC(=O)Nc1ccccc1O`: the MIC with Cryptococcus neoformans amounted to 50 µg/mL (≈ 331 µM). The outcome with Candida albicans was inactive.
On the same counts, the results for `O=C(O)c1c[nH]c2ccccc12` are 12 µg/mL (≈ 74.5 µM) and “inactive”.
On the same counts, the results for `CC(C)C[C@@H]1NC(=O)[C@@H]2C[C@@H](O)CN2C1=O` are 25 µg/mL (≈ 110 µM) and “inactive”.
On the same counts, the results for `C[C@H](O)/C=C/[C@@H]1OC(=O)C[C@H]1Nc1ccc(C(=O)O)cc1` are 100 µg/mL (≈ 343 µM) and “inactive”.
Turning to `Cc1cc(O)cc2cc3c(c(O)c12)C(=O)CC[C@@H]3O`, in the test with Cryptococcus neoformans, the MIC amounted to 50 µg/mL (≈ 194 µM). The result in the test on Candida albicans was inactive.
On the same counts, the results for `Cc1c(C(=O)O)c(O)cc2c1C(=O)c1c(O)cccc1C2=O` are 100 µg/mL (≈ 335 µM) and “inactive”.
On the same counts, the results for `O=C1N[C@@H](Cc2ccccc2)C(=O)N2C[C@H](O)C[C@@H]12` are 50 µg/mL (≈ 192 µM) and “inactive”.
Consider `CC(=O)NCCc1c[nH]c2ccccc12` [NB-ACETYLTRYPTAMINE], for which the MIC with Cryptococcus neoformans amounted to 200 µg/mL (≈ 989 µM). Further, in the test on Candida albicans, the outcome was inactive.
On the same counts, the results for `C[C@]1(O)CC(=O)c2c(cc3cccc(O)c3c2O)C1` are 50 µg/mL (≈ 194 µM) and “inactive”.
On the same counts, the results for `CC(C)C[C@@H]1NC(=O)CNC1=O` are 25 µg/mL (≈ 147 µM) and “inactive”.
As for `CC(=O)CC[C@@H]1OC(=O)C[C@H]1Nc1ccc(C(=O)O)cc1`, the MIC with Cryptococcus neoformans is 50 µg/mL (≈ 172 µM); in the test with Candida albicans (SC5314, 48 h, time 2 day) it was greater than 100 µg/mL.
